Inhibition data for 31 compounds are collected here from patent publication US8686150B2 (Sanofi, priority 2011, dated 2014).

The target in the assay is T1, human full-length recombinant PKC βII (Homo sapiens, UniProt P05771).
T1 construct: Active human full-length recombinant PKC βII; purchased Invitrogen GmbH, Darmstadt, Germany
Description: Determination of PKC βII inhibition (Caliper mobility-shift kinase assay, Fluorescein-RFARKGSLRQKNV peptide substrate). The format is biochemical. To be noted: example compounds at a final concentration of 1.14 μM (±0.15 μM). The procedure, abridged:
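Compounds were tested at 1.14 μM final. Enzyme was activated by PS, DAG and CaCl2 in Hepes pH 7.4 with MgCl2, with substrate 3 μM and ATP 120 μM as pre-mix concentrations. After 60 min at 32 °C and an EDTA stop, Caliper separation gave fractional turnover, which was normalised to no-compound and no-enzyme controls.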

T1 sequence (P05771 1-673 isoform P05771-2): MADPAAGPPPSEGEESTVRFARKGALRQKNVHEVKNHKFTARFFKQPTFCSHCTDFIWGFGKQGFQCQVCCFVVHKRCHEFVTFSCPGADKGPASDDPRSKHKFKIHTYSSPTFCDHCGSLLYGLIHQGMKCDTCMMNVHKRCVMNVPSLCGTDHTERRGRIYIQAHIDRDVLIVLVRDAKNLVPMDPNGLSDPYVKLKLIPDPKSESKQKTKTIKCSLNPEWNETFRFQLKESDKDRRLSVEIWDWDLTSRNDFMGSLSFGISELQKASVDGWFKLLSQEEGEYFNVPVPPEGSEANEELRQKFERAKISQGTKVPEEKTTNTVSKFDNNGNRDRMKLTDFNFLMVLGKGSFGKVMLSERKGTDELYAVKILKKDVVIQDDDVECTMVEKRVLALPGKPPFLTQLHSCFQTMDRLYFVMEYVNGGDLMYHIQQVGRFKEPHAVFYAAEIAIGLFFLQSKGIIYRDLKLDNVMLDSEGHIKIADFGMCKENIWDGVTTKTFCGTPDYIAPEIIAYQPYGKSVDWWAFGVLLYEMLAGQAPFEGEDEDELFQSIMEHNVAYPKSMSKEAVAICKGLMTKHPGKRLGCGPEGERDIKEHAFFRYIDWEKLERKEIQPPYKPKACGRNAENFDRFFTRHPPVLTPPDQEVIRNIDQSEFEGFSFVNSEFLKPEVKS

As usually defined, the inhibition is the percentage by which the read-out fell short of the control. As to `Cc1n[nH]c2nc(-c3ccc(O)cc3)cc(C(=O)N3CCNCC34CCCC4)c12` [Example 108, (6,9-Diaza-spiro[4.5]dec-6-yl)-[6-(4-hydroxy-phenyl)-3-methyl-1H-pyrazolo[3,4-b]pyridin-4-yl]-methanone], the inhibition at 1.14 µM worked out at 96%.

Take `CNC1CCN(C(=O)c2cc(-c3ccc(O)cc3)nc3[nH]nc(C)c23)CC1` [Example 109, [6-(4-Hydroxy-phenyl)-3-methyl-1H-pyrazolo[3,4-b]pyridin-4-yl]-(4-methylamino-piperidin-1-yl)-methanone]: the inhibition at 1.14 µM came to 88%.

Consider `Cc1n[nH]c2nc(-c3ccc(O)cc3)cc(C(=O)N3CCC[C@@H](CN)C3)c12` [Example 110, ((S)-3-Aminomethyl-piperidin-1-yl)-[6-(4-hydroxy-phenyl)-3-methyl-1H-pyrazolo[3,4-b]pyridin-4-yl]-methanone], for which the inhibition at 1.14 µM was 65%.

For the compound `Cc1n[nH]c2nc(-c3ccc(O)cc3)cc(C(=O)N3CC4CCC(C3)N4)c12` [Example 111, 3,8-Diaza-bicyclo[3.2.1]oct-3-yl-[6-(4-hydroxy-phenyl)-3-methyl-1H-pyrazolo[3,4-b]pyridin-4-yl]-methanone], the inhibition at 1.14 µM amounted to 97%.

Take `Cc1n[nH]c2nc(-c3ccc(O)cc3)cc(C(=O)N3C[C@@H](C)NC[C@@H]3C)c12` [Example 112, ((2S,5R)-2,5-Dimethyl-piperazin-1-yl)-[6-(4-hydroxy-phenyl)-3-methyl-1H-pyrazolo[3,4-b]pyridin-4-yl]-methanone]: the inhibition at 1.14 µM is 92%.

Regarding `Cc1n[nH]c2nc(-c3ccc(O)cc3)cc(C(=O)N3CC(C)(C)NCC3C)c12` (stereo not shown) [Example 113, [6-(4-Hydroxy-phenyl)-3-methyl-1H-pyrazolo[3,4-b]pyridin-4-yl]-(2,5,5-trimethyl-piperazin-1-yl)-methanone], the inhibition at 1.14 µM was found to be 93%.

Turning to `Cc1n[nH]c2nc(-c3ccc(O)cc3)cc(C(=O)N3CCNCC3C(F)(F)F)c12` (stereo not shown) [Example 114, [6-(4-Hydroxy-phenyl)-3-methyl-1H-pyrazolo[3,4-b]pyridin-4-yl]-(2-trifluoromethyl-piperazin-1-yl)-methanone], the inhibition at 1.14 µM came out at 87%.

Consider `CCC1(NC(=O)c2cc(-c3ccc(O)cc3)nc3[nH]nc(C)c23)CCCNC1` (stereo not shown) [Example 115, 6-(4-Hydroxy-phenyl)-3-methyl-1H-pyrazolo[3,4-b]pyridine-4-carboxylic acid (3-ethyl-piperidin-3-yl)-amide], for which the inhibition at 1.14 µM worked out at 83%.

With `Cc1n[nH]c2nc(-c3ccc(O)cc3)cc(C(=O)NCC3(N)CCCCCC3)c12` [Example 116, 6-(4-Hydroxy-phenyl)-3-methyl-1H-pyrazolo[3,4-b]pyridine-4-carboxylic acid (1-amino-cycloheptylmethyl)-amide], the inhibition at 1.14 µM turned out to be 76%.

Turning to `Cc1n[nH]c2nc(-c3ccc(O)cc3)cc(C(=O)N3CCCC(C)(N)C3)c12` (stereo not shown) [Example 117, (3-Amino-3-methyl-piperidin-1-yl)-[6-(4-hydroxy-phenyl)-3-methyl-1H-pyrazolo[3,4-b]pyridin-4-yl]-methanone], the inhibition at 1.14 µM amounted to 89%.

With `CCCC1(NC(=O)c2cc(-c3ccc(O)cc3)nc3[nH]nc(C)c23)CCNCC1` [Example 118, 6-(4-Hydroxy-phenyl)-3-methyl-1H-pyrazolo[3,4-b]pyridine-4-carboxylic acid (4-propyl-piperidin-4-yl)-amide], the inhibition at 1.14 µM was 98%.

Consider `Cc1n[nH]c2nc(-c3ccc(O)cc3)cc(C(=O)N[C@@H]3CCC[C@H]3N)c12` [Example 120, 6-(4-Hydroxy-phenyl)-3-methyl-1H-pyrazolo[3,4-b]pyridine-4-carboxylic acid ((1R,2R)-2-amino-cyclopentyl)-amide], for which the inhibition at 1.14 µM was found to be 88%.

Take `Cc1n[nH]c2nc(-c3ccc(O)cc3)cc(C(=O)N3CC(C)(C)NCC3(C)C)c12` [Example 121, [6-(4-Hydroxy-phenyl)-3-methyl-1H-pyrazolo[3,4-b]pyridin-4-yl]-(2,2,5,5-tetramethyl-piperazin-1-yl)-methanone]: the inhibition at 1.14 µM was found to be 99%.

As for `Cc1n[nH]c2nc(-c3ccc(O)cc3)cc(C(=O)N3CCC(C)(N)C3)c12` (stereo not shown) [Example 122, (3-Amino-3-methyl-pyrrolidin-1-yl)-[6-(4-hydroxy-phenyl)-3-methyl-1H-pyrazolo[3,4-b]pyridin-4-yl]-methanone], the inhibition at 1.14 µM worked out at 89%.

Turning to `CCCC1(NC(=O)c2cc(-c3ccc(O)cc3)nc3[nH]nc(C)c23)CCCNC1` (stereo not shown) [Example 124, 6-(4-Hydroxy-phenyl)-3-methyl-1H-pyrazolo[3,4-b]pyridine-4-carboxylic acid (3-propyl-piperidin-3-yl)-amide], the inhibition at 1.14 µM was 78%.

In the case of `CCCC1(NC(=O)c2cc(-c3ccc(O)cc3)nc3[nH]nc(C)c23)CCNC1` (stereo not shown) [Example 125, 6-(4-Hydroxy-phenyl)-3-methyl-1H-pyrazolo[3,4-b]pyridine-4-carboxylic acid (3-propyl-pyrrolidin-3-yl)-amide], the inhibition at 1.14 µM was determined as 52%.

`CCC(CCN)NC(=O)c1cc(-c2ccc(O)cc2)nc2[nH]nc(C)c12` (stereo not shown) [Example 127, 6-(4-Hydroxy-phenyl)-3-methyl-1H-pyrazolo[3,4-b]pyridine-4-carboxylic acid (3-amino-1-ethyl-propyl)-amide]: the inhibition at 1.14 µM came to 90%.

As to `Cc1n[nH]c2nc(-c3ccc(O)cc3)cc(C(=O)NC(C)(C)CCN)c12` [Example 128, 6-(4-Hydroxy-phenyl)-3-methyl-1H-pyrazolo[3,4-b]pyridine-4-carboxylic acid (3-amino-1,1-dimethyl-propyl)-amide], the inhibition at 1.14 µM was 91%.

For `Cc1n[nH]c2nc(-c3ccc(O)cc3)cc(C(=O)NCCC(C)(C)N)c12` [Example 129, 6-(4-Hydroxy-phenyl)-3-methyl-1H-pyrazolo[3,4-b]pyridine-4-carboxylic acid (3-amino-3-methyl-butyl)-amide], the inhibition at 1.14 µM was 69%.

Take `Cc1n[nH]c2nc(-c3ccc(O)cc3)cc(C(=O)NC[C@H]3CC[C@H](N)CC3)c12` [Example 130, 6-(4-Hydroxy-phenyl)-3-methyl-1H-pyrazolo[3,4-b]pyridine-4-carboxylic acid (trans-4-amino-cyclohexylmethyl)-amide]: the inhibition at 1.14 µM was found to be 47%.

On to `Cc1n[nH]c2nc(-c3ccc(O)cc3)cc(C(=O)NC(CCN)c3ccccc3)c12` (stereo not shown) [Example 131, 6-(4-Hydroxy-phenyl)-3-methyl-1H-pyrazolo[3,4-b]pyridine-4-carboxylic acid (3-amino-1-phenyl-propyl)-amide], for which the inhibition at 1.14 µM is 68%.

Take `Cc1n[nH]c2nc(-c3ccc(O)cc3)cc(C(=O)NC(CN(C)C)c3ccccc3)c12` (stereo not shown) [Example 132, 6-(4-Hydroxy-phenyl)-3-methyl-1H-pyrazolo[3,4-b]pyridine-4-carboxylic acid (2-dimethylamino-1-phenyl-ethyl)-amide]: the inhibition at 1.14 µM is 72%.

For the compound `Cc1n[nH]c2nc(-c3ccc(O)cc3)cc(C(=O)NCC(C)(C)N)c12` [Example 133, 6-(4-Hydroxy-phenyl)-3-methyl-1H-pyrazolo[3,4-b]pyridine-4-carboxylic acid (2-amino-2-methyl-propyl)-amide], the inhibition at 1.14 µM was found to be 89%.

For `Cc1n[nH]c2nc(-c3ccc(O)cc3)cc(C(=O)NC(C)(C)C(C)(C)N)c12` [Example 134, 6-(4-Hydroxy-phenyl)-3-methyl-1H-pyrazolo[3,4-b]pyridine-4-carboxylic acid (2-amino-1,1,2-trimethyl-propyl)-amide], the inhibition at 1.14 µM worked out at 62%.

Turning to `Cc1n[nH]c2nc(-c3c(F)cc(O)cc3F)cc(C(=O)N3CCNCC3(C)C)c12` [Example 135, [6-(2,6-Difluoro-4-hydroxy-phenyl)-3-methyl-1H-pyrazolo[3,4-b]pyridin-4-yl]-(2,2-dimethyl-piperazin-1-yl)-methanone], the inhibition at 1.14 µM is 96%.

With `Cc1cc(O)ccc1-c1cc(C(=O)N2CCNCC2c2cc(F)cc(F)c2)c2c(C)n[nH]c2n1` (stereo not shown) [Example 136, [2-(3,5-Difluoro-phenyl)-piperazin-1-yl]-[6-(4-hydroxy-2-methyl-phenyl)-3-methyl-1H-pyrazolo[3,4-b]pyridin-4-yl]-methanone], the inhibition at 1.14 µM was determined as 100%.

In the case of `Cc1cc(O)ccc1-c1cc(C(=O)N2CCNCC2c2ccc(Br)cc2)c2c(C)n[nH]c2n1` (stereo not shown) [Example 137, [2-(4-Bromo-phenyl)-piperazin-1-yl]-[6-(4-hydroxy-2-methyl-phenyl)-3-methyl-1H-pyrazolo[3,4-b]pyridin-4-yl]-methanone], the inhibition at 1.14 µM worked out at 99%.

As to `Cc1cc(O)ccc1-c1cc(C(=O)N2CCNCC2c2ccc(F)cc2)c2c(C)n[nH]c2n1` (stereo not shown) [Example 138, [2-(4-Fluoro-phenyl)-piperazin-1-yl]-[6-(4-hydroxy-2-methyl-phenyl)-3-methyl-1H-pyrazolo[3,4-b]pyridin-4-yl]-methanone], the inhibition at 1.14 µM is 98%.

Take `Cc1cc(O)ccc1-c1cc(C(=O)N2CCNCC2c2cccc(F)c2F)c2c(C)n[nH]c2n1` (stereo not shown) [Example 139, [2-(2,3-Difluoro-phenyl)-piperazin-1-yl]-[6-(4-hydroxy-2-methyl-phenyl)-3-methyl-1H-pyrazolo[3,4-b]pyridin-4-yl]-methanone]: the inhibition at 1.14 µM turned out to be 99%.

Turning to `COc1ccc(C2CNCCN2C(=O)c2cc(-c3ccc(O)cc3C)nc3[nH]nc(C)c23)cc1` (stereo not shown) [Example 140, [6-(4-Hydroxy-2-methyl-phenyl)-3-methyl-1H-pyrazolo[3,4-b]pyridin-4-yl]-[2-(4-methoxy-phenyl)-piperazin-1-yl]-methanone], the inhibition at 1.14 µM was found to be 98%.

For `Cc1cc(O)ccc1-c1cc(C(=O)N2CCNC[C@@H]2c2cccc(F)c2)c2c(C)n[nH]c2n1` [Example 141, [(S)-2-(3-Fluoro-phenyl)-piperazin-1-yl]-[6-(4-hydroxy-2-methyl-phenyl)-3-methyl-1H-pyrazolo[3,4-b]pyridin-4-yl]-methanone], the inhibition at 1.14 µM is 98%.
